One data set is described as follows: LD20 in the P388/0 test. Format: in vivo, CD2-F1 mice. The arrangement: LD20: dose in mg/kg body weight. The settings on record: intraperitoneal, days 1, 5, 9, doses are on a mg/kg basis; for MTD: mouse, in vivo, ip, read-out: highest nontoxic dose (LD20 column, values in parentheses; LD20 was not determined). How it is done: CD2-F1 mice, of the same sex, weighing 20±3 g, are used for this test. Control and test animals are injected intraperitoneally with a suspension of ~10^6 viable P388/0 tumor cells on day 0. In each test, several dose levels which bracket the LD20 of the compound are evaluated; each dose level group contains 6 animals. The test compounds are prepared either in physiologic saline containing 0.05% Tween 80 or distilled water containing 5% dextrose and are administered intraperitoneally on days 1, 5, and 9 relative to tumor implant. Doses are on a mg/kg basis according to individual animals' body weights. The day of death for each animal is recorded, the median identified for each group and the ratios of median survival time for treated (T)/control (C) groups are calculated. The criterion for activity is T/C×100≥120%.

The subject of data set [1] is Mycoplasma smegmatis (S3264). The data set can be described thus: Antibacterial screening, Mycoplasma smegmatis, agar dilution assay. It is filed as cell-based. An excerpt: (§1) Antibacterial testing against Mycoplasma smegmatis (S3264) and Streptococcus pyogens (CN10) was done with slight modifications using standard agar dilution assays as outlined in Manual of Clinical Microbiology, Second Ed., E. H. Lennette, E. H. Spaulding and J. P. Truant Eds., American Society for Microbiology, Washington, DC, 1974.
Background: Agar dilution tests growth on a series of plates holding different concentrations.

Data set [2] deals with Streptococcus pyogenes (CN10). The data set can be described thus: Antibacterial testing, Streptococcus pyogenes, agar dilution assay. It is filed as cell-based.
Text: as §1

The subject of data set [3] is Candida albicans (CN1863). In words: Antifungal screening, Candida albicans, broth and agar dilution assays. It is filed as cell-based. The settings on record: Medium: Wellcotest sensitivity test agar plus 7% lysed horse blood. An excerpt: Antifungal testing against Candida albicans (CN1863) was done with slight modifications using a combination of broth and agar dilution assays as outlined in Laboratory Handbook of Medical Mycology, Chapter 6, pages 441-446, M. R. McGinnis, Academic Press, New York, NY, 1980.
Medium: Wellcotest* sensitivity test agar plus 7% lysed horse blood.

The test system of the next data set is Trichomonas vaginalis. The data set can be described thus: Antiprotozoal testing, Trichomonas vaginalis (in vitro). It is filed as cell-based. Conditions: Stenton or Modified Diamond's medium, read-out: Result (screen code, inhibition); for inhibition at 40 µg/mL: 40 mg/L. From the text:
Antiprotozoal testing against Trichomonas vaginalis was done using methods outlined by R. M. Michaels in Advances in Chemotherapy, 3, 39-108 (1968).
(Stenton or Modified Diamond's medium)

Data set [4] deals with Nippostrongylus brasiliensis (Immature - free living stages). In words: Anthelmintic screening, Nippostrongylus brasiliensis. Format: cell-based. From the text:
Anthelmintic testing against Nippostrongylus brasiliensis was done using methods as outlined in D. C. Jenkins, R. Armitage, and T. S. Carrington, Zetschrift fur Parasitenkunde 63, 261-269 (1980).

The subject of another data set is Eimeria tenella. The data set can be described thus: Antiprotozoal screening, Eimeria tenella (in vitro). Format: cell-based. Conditions: in vitro, read-out: Result (screen code, inhibition); for inhibition at 5 µg/mL: 5 mg/L. From the text:
Antiprotozoal testing against Eimeria tenella was done using methods outlined in V. S. Latter and D. Wilson, Parasitology 79, 169 (1979).

Data set [5] concerns Brugia pahangi microfilaria. In words: Screening against Brugia pahangi microfilaria (in vitro). It is filed as cell-based. Conditions: for inhibition at 12.5 µg/mL: 12.5 mg/L. From the text: Anthelmintic testing against Brugia pahangi was done using methods outlined in D. A. Denham et al., Transactions of the Royal Society of Tropical Medicine and Hygiene 73, 673-676 (1979).

The next data set deals with Herpes simplex 1/vero. In words: Herpes simplex 1/vero plaque inhibition screen. Format: cell-based. An excerpt: Antiviral testing against Herpes simplex 1/vero was done using plaque inhibition methods as outlined in P. Collins and D. J. Bauer, Proc. N.Y. Acad. Sci. 284, 49 (1977) and by plaque reduction methods as outlined in P. Collins and D. J. Bauer, J. Antimicrobiol Chemotherapy 3, Supplement A, 73, (1977). The column headings labeled Score, Toxicity, and Zone of Inhibition refer to the plaque inhibition screen while the IC50 heading to the plaque reduction screen.

Another data set can be described thus: LD50 Tests. Conditions: in vivo; IP single dose - CD1 Male Mouse. An excerpt:
|(IP single dose - CD1 Male Mouse)

[6] abbreviates: read-out: Result (screen code, inhibition).

As usually defined, the MIC is the lowest concentration that inhibits growth of the organism. For orientation: inhibition means how much of the control response was suppressed. What is called LD50 is the dose at which mortality reaches 50%.

Structures can show the parent of a compound that is named as a salt.

`C[C@H](O)[C@@](C)(CO)NCc1ccc2ccc3cccc4ccc1c2c34` (relative stereo) [Example 20G, (+-)(2R*,3S*)-2-((1-Pyrenylmethyl)amino)-2-methyl-1,3-butanediol hydrochloride] registered an LD20 in “LD20 in the P388/0 test” of 125.
Compound `CC(C)(CO)NCc1ccc2ccc3cccc4ccc1c2c34` [Example 2A, 2-methyl-2-((1-pyrenylmethyl)amino)propanol hydrochloride] showed an LD20 in “LD20 in the P388/0 test” (hydrochloride) of 170. In addition, the minimum inhibitory concentration (MIC) in data set [1] was at most 5 µg/mL; in data set [2], 10 µg/mL; in [3], 10 µg/mL; in data set [4], 10 µg/mL; in data set [5] it was 3.1 µg/mL. The inhibition at 40 µg/mL in the data set with Trichomonas vaginalis was in the range of 51 to 75%. Besides, the inhibition at 5 µg/mL in the data set on Eimeria tenella fell in the range of 26 to 50%. Besides, in data set [5] (3.1 mg/L, read-out: Result (screen code, inhibition)), the inhibition at 3.1 µg/mL is 76 to 100%.
`CC(C)(CO)NCc1ccc2ccc3cccc4ccc1c2c34` [Example 2B, 2-Methyl-2-((1-pyrenylmethyl)amino)propanol] returned an LD20 in the data set “LD20 in the P388/0 test” of 450.
As for `OCCCNCc1ccc2ccc3cccc4ccc1c2c34` [Example 3, 3-((1-pyrenylmethyl)amino)propanol hydrochloride], in “LD20 in the P388/0 test”, the LD20 was found to be 450. The MIC in [1] is under 5 µg/mL; in data set [2], 10 µg/mL; in data set [3] it was 30 µg/mL; in data set [4], 1 µg/mL; in data set [5], 0.78 µg/mL. In the data set with Trichomonas vaginalis (6.25 mg/L), the inhibition at 6.25 µg/mL was 76 to 100%. The inhibition at 0.78 µg/mL in [5] (0.78 mg/L, read-out: Result (screen code, inhibition)) was in the range of 76 to 100%.
Consider `CC(C)C(CO)NCc1ccc2ccc3cccc4ccc1c2c34` (stereo not drawn) [Example 4, 3-Methyl-2-((1-pyrenylmethyl)amino)butanol hydrochloride], for which, in the data set “LD20 in the P388/0 test”, the LD20 came to 450. Besides, in data set [4], the MIC amounted to 10 µg/mL. In [5] (setting [6]), the inhibition at 12.5 µg/mL fell in the range of 26 to 50%.
Regarding `CCC(CO)NCc1ccc2ccc3cccc4ccc1c2c34` (stereo not drawn) [Example 6, 2-((1-Pyrenylmethyl)amino)butanol hydrochloride], the LD20 in the data set “LD20 in the P388/0 test” was 450. Moreover, in the data set with Herpes simplex 1/vero, the Score is recorded as -2 (26-50% inhibition). Moreover, the MIC in data set [1] is 10 µg/mL; in data set [3] it was 50 µg/mL. Further, the inhibition at 40 µg/mL with Trichomonas vaginalis was in the range of 76 to 100%. This compound also displayed an LD50 in “LD50 Tests” of 350 mg/kg.
`CC(CO)NCc1ccc2ccc3cccc4ccc1c2c34` (stereo not drawn) [Example 7, 2-((1-Pyrenylmethyl)amino)propanol hydrochloride] gave an LD20 in “LD20 in the P388/0 test” of 600. Moreover, the MIC in data set [1] was at most 5 µg/mL; in [3], 50 µg/mL.
Turning to `CC(O)CNCc1ccc2ccc3cccc4ccc1c2c34` (stereo not drawn) [Example 8, 1-((1-pyrenylmethyl)amino)-2-propanol hydrochloride], in “LD20 in the P388/0 test”, the LD20 came out at 600. The MIC in data set [1] stood at 10 µg/mL; in [3], 50 µg/mL.
With `CCC(O)CNCc1ccc2ccc3cccc4ccc1c2c34` (stereo not drawn) [Example 9, 1-((1-Pyrenylmethyl)amino)-2-butanol hydrochloride], the minimal inhibitory concentration (MIC) in [1] was 10 µg/mL; in [2], 10 µg/mL; in [3], 10 µg/mL; in data set [4], 50 µg/mL. Besides, the inhibition at 40 µg/mL in the data set with Trichomonas vaginalis fell in the range of 26 to 50%. In the data set “LD50 Tests”, this compound returned an LD50 of 350 mg/kg.
For `OCC(CO)NCc1ccc2ccc3cccc4ccc1c2c34` [Example 11, 2-((1-Pyrenylmethyl)amino)-1,3-propanediol hydrochloride], the LD20 in “LD20 in the P388/0 test” was determined as 450. The MIC in data set [1] was 10 µg/mL; in data set [2], 5 µg/mL; in data set [3], 50 µg/mL; in data set [4] it was at least 50 µg/mL. Moreover, the inhibition at 40 µg/mL with Trichomonas vaginalis was in the range of 76 to 100%. Besides, the inhibition at 5 µg/mL with Eimeria tenella lay in the range of 76 to 100%. The compound also yielded an LD50 in “LD50 Tests” of 250 mg/kg.
`CC(C)(O)CNCc1ccc2ccc3cccc4ccc1c2c34` [Example 12, 2-(((1-Pyrenylmethyl)amino)methyl)-2-propanol hydrochloride]: the MIC in data set [1] and in data set [3] was over 50 µg/mL each time. Further, in the data set on Eimeria tenella, the inhibition at 5 µg/mL is 76 to 100%. Also, the inhibition at 12.5 µg/mL in data set [5] (setting [6]) is 26 to 50%.
In the data set “LD20 in the P388/0 test”, `OCCNCc1ccc2ccc3cccc4ccc1c2c34` [Example 13, 2-((1-Pyrenylmethyl)amino)ethanol hydrochloride] registered an LD20 of 220. Also, the minimum inhibitory concentration (MIC) in data set [1] was found to be 5 µg/mL; in data set [2] it was 5 µg/mL; in [3] it was 10 µg/mL; in data set [4] it was 50 µg/mL. In addition, the inhibition at 5 µg/mL in the data set with Eimeria tenella is 26 to 50%. The compound further gave an LD50 in the data set “LD50 Tests” of 160 mg/kg.
For `CC(O)CCNCc1ccc2ccc3cccc4ccc1c2c34` (stereo not drawn) [Example 14, 4-((1-Pyrenylmethyl)amino)-2-butanol hydrochloride], the MIC in data set [1] was 10 µg/mL; in data set [2], at most 5 µg/mL; in data set [3], 50 µg/mL; in [4], 50 µg/mL. In addition, the inhibition at 0.31 µg/mL in the data set with Eimeria tenella (0.31 mg/L) was 26 to 50%. In “LD50 Tests”, this compound showed a 50% lethal dose (LD50) of 130 mg/kg.
Regarding `CC(=O)OCC(COC(C)=O)(COC(C)=O)NCc1ccc2ccc3cccc4ccc1c2c34` [Example 15, 2-Acetoxymethyl-1,3,-O-diacetyl-2-((1-pyrenylmethyl)amino)-1,3-propanediol], in the data set “LD20 in the P388/0 test”, the MTD was 500 mg/kg. Besides, the figures for the MIC in data set [1] and in [3] were at most 10 µg/mL and over 50 µg/mL, respectively.
Take `CCC(COC(C)=O)(COC(C)=O)NCc1ccc2ccc3cccc4ccc1c2c34` [Example 16, 2-Ethyl-2-((1-pyrenylmethyl)amino)-1,3-propanediol diacetate]: in “LD20 in the P388/0 test”, the MTD turned out to be 675 mg/kg. For the same compound, the Score with Herpes simplex 1/vero is listed as -4 (76-100% inhibition).
Consider `CC(=O)OCC(C)(COC(C)=O)NCc1ccc2ccc3cccc4ccc1c2c34` [Example 18, 2-methyl-2-(1-pyrenylmethyl)amino)-1,3-propanediol diacetate], for which the MTD in “LD20 in the P388/0 test” amounted to 300 mg/kg. Also, in the data set with Herpes simplex 1/vero, the Score is on record as -3 (51-75% inhibition) and the “Zone of Inhibition” value turned out to be 30. Moreover, the MIC in data set [1] was at most 10 µg/mL. Besides, the MIC in data set [2] came out at 30 µg/mL.
In “LD20 in the P388/0 test”, `CC(CO)(CO)NCc1cc2cccc3ccc4cccc1c4c32` [Example 19, 2-methyl-2-((4-pyrenylmethyl)amino)-1,3-propanediol hydrochloride.1/4H2 O] showed an LD20 of 45. Also, the MIC turned out to be 10 µg/mL in [1] and 30 µg/mL in [3].
For the compound `CCOCC(CO)(CO)NCc1ccc2ccc3cccc4ccc1c2c34` [Example 21C, 2-Ethoxymethyl-2-((1-pyrenylmethyl)amino)-1,3-propanediol hydrochloride 1/3H2 O], the LD20 in “LD20 in the P388/0 test” amounted to 225.
Same read-out and setting: to `COCC(C)(CO)NCc1ccc2ccc3cccc4ccc1c2c34` (stereo not drawn) [Example 22D, 3-methoxy-2-methyl-2-((1-pyrenylmethyl)amino)-1-propanol methanesulfonate.1/3H2 O] belongs 135; to `O[C@@H]1CCC[C@H](O)[C@H]1NCc1ccc2ccc3cccc4ccc1c2c34` [Example 23B, (1α,2β,3α)-2-((1-Pyrenylmethyl)amino)-1,3-cyclohexanediolmethanesulfonate], 180.

(Values after US4820873A, “Pyrene derivatives” (priority 1984, dated 1989).)
